Assay results reported in EP1397353B1, “2-(2,6-DISUBSTITUTED PHENYL)-4-ARYL-5-ALKYL-1,3-OXAZOLINE COMPOUNDS USEFUL AS INSECTICIDES AND ACARICIDES” (Dow AgroSciences LLC, priority 2001, dated 2003).

How the values were obtained:
Type in all cases: in vivo
[1] = tested on: two-spotted spider mite (Tetranychus urticae); assay: Insecticidal test for two-spotted spider mite, ovicide method; details: Tetranychus urticae, foliar, 144 h; ovicide method, cotton leaf discs, 6 days; rating of % Control; read-out: SM, activity against two-spotted spider mite
Experimental: Insecticidal test for two-spotted spider mite (Tetranychus urticae)
Ten adult female two-spotted spider mites were placed on eight 2.2 cm leaf discs of cotton leaf, allowed to oviposit over 24 hours, and thereafter removed. […] Discs were placed on an agar substrate and held at 24 °C and 90% RH for 6 days.

[2] = tested on: Sweetpotato Whitefly (Bemisia tabacia); assay: Insecticidal test for sweetpotato whitefly (spray on cotton plants); details: Bemisia, 312 h, 200 ppm spray, large nymphs counted after 13 days, rating of % Control, read-out: WF, activity at 200 ppm against whitefly
Experimental: Insecticidal test for Sweetpotato Whitefly (Bemisia tabacia)
Four mg of each test compound were dissolved by adding 4 mL of a 90:10 acetone:ethanol solvent mixture to the vial containing the sample compound. This solution was added to 16 mL of water containing 0.05% Tween 20 surfactant to produce 20 mL of a 200 ppm spray solution.
Five-week-old cotton plants reared in a greenhouse were stripped of all foliage except for the two uppermost true leaves that were greater than 5 cm in diameter. These plants were then placed into a laboratory colony of whiteflies for two days for oviposition by the colony females. All whiteflies were then removed from the test plants with pressurized air. The spray solution was then applied to the test plants with a hand-held syringe fitted with hollow cone nozzle. One mL spray solution was applied to each leaf top and bottom for a total of 4 mL per plant. Four replications of each test compound utilized a total of 16 mL spray solution. Plants were air dried and then placed in a holding chamber (28 °C and 60% RH) for 13 days. Compound efficacy was evaluated by counting, under an illuminated magnifying glass, the number of large nymphs (3rd-4th instar) per leaf
Percent control based on reduction of large nymphs of a test compound compared to solution-only (no test compound) sprayed plants is reported in Table 1-8.

[3] = tested on: beet armyworm (Spodoptera exigua); assay: Insecticidal test for beet armyworm (treated lepidopteran diet); details: Spodoptera exigua, 120 h, 2nd instar larvae, 5 days, rating of % Control, read-out: BAW, activity at 400 ppm against beet armyworm
Experimental: (§1) Insecticidal test for tobacco budworm (Heliothis virescens), beet armyworm (Spodoptera exigua), and cabbage looper (Trichoplusia ni).
(§2) To prepare test solution, the test compound was formulated at 400 ppm in 7.5 mL of 2 acetone: 1 tap water. 250 µL of the test solution was pipetted upon the surface of 8 mL of lepidopteran diet (modified Shorey) contained in each of five one-ounce plastic cups (one cup = 1 replication). […] After airdrying, the treated leaf discs were placed individually into one-ounce plastic cups. Each dried, treated cotton cotyledon disc was infested with a 2nd instar tobacco budworm larva, and each cabbage leaf disc was infested with a 2nd instar cabbage looper larva. Cups containing the treated substrates and larvae were capped and then held in a growth chamber at 25 °C, 50-55% RH, and 14 hr light: 10 hr dark for 5 days.

[4] = tested on: cabbage looper (Trichoplusia ni); assay: Insecticidal test for cabbage looper (leaf-dip, cabbage leaf discs); details: Trichoplusia ni, foliar, 120 h, dipped cabbage leaf discs, 2nd instar larvae, 5 days, rating of % Control, read-out: CL, activity at 400 ppm against cabbage looper
Experimental: as §1, §2

[5] = tested on: cotton aphid (Aphis gossypii); assay: Insecticidal test for cotton aphid (spray on infested squash cotyledons); details: 50 ppm spray, all life stages, 3 days, rating of % Control
Experimental: Insecticidal test for cotton aphid (Aphis gossypii)
To prepare spray solutions, 1 mg of each test compound was dissolved into 1 mL of a 90:10 acetone:ethanol solvent. This 1 mL of chemical solution was added to 19 mL of water containing 0.05% Tween 20 surfactant to produce a 50 ppm spray solution.
Squash cotyledons were infested with cotton aphid (all life stages)16-20 hours prior to application of spray solution. The solution was sprayed on both sides of each infested squash cotyledon (0.5 mL x 2 each side) with a sweeping action until runoff. The plants were allowed to air dry and held for 3 days in a controlled room at 26 °C and 40% RH after which time the test was graded. Grading was by actual count using a dissecting microscope and comparison of test counts to the untreated check.

[6] = tested on: tobacco budworm (Heliothis virescens); assay: Insecticidal test for tobacco budworm (leaf-dip, cotton cotyledon discs); details: Heliothis virescens, 120 h, dipped cotton cotyledon discs, 2nd instar larvae, 5 days, rating of % Control, read-out: TBW, activity at 400 ppm against tobacco budworm
Experimental: as §1, §2

Row | Compound | pest or weed control [1] [%] | pest or weed control at 200 ppm [2] [%] | pest or weed control at 400 ppm [3] [%] | pest or weed control at 400 ppm [4] [%] | CA, activity at 50 ppm against cotton aphid [5] | pest or weed control at 400 ppm [6] [%]
1 | C[C@H]1OC(c2c(F)cccc2F)=N[C@H]1c1ccc(-c2ccc(OC(F)(F)F)cc2)cc1 (mixture of isomers) [Compound 6, (4S,5R)- and (4R,5S)-2-(2,6-difluorophenyl)-4-(4'-trifluoromethoxy-1,1'-biphenyl-4-yl)-5-methyl-4,5-dihydro-1,3-oxazole] | 90 to 100 | 80 to 89 | 90 to 100 | 90 to 100 | A (90-100) | 90 to 100
2 | C[C@@H]1OC(c2c(F)cccc2F)=N[C@H]1c1ccc(-c2ccc(C(F)(F)F)cc2F)cc1 (mixture of isomers) [Compound 32, (4S,5S)- and (4R,5R)-2-(2,6-difluorophenyl)-4-[2'-fluoro-4'-(trifluoromethyl)-1,1'-biphenyl-4-yl]-5-methyl-4,5-dihydro-1,3-oxazole] | 70 to 79 | < 50 | 90 to 100 | 90 to 100 |  | 90 to 100
3 | C[C@@H]1OC(c2c(F)cccc2Cl)=N[C@@H]1c1ccc(Br)cc1 (mixture of isomers) [Compound 3, (4R,5S)- and (4S,5R)-4-(4-bromophenyl)-2-(2-chloro-6-fluorophenyl)-5-methyl-4,5-dihydro-1,3-oxazole] | 90 to 100 | 90 to 100 |  | 90 to 100 | B (80-89) | 
4 | Cc1cc(-c2ccc(C(F)(F)F)cc2)ccc1[C@H]1N=C(c2c(F)cccc2F)O[C@H]1C (mixture of isomers) [Compound 39, (4R,5S)- and (4S,5R)-2-(2,6-difluorophenyl)-5-methyl-4-[3-methyl-4'-(trifluoromethyl)-1,1'-biphenyl-4-yl]-4,5-dihydro-1,3-oxazole] | 80 to 89 | < 50 | 90 to 100 | 90 to 100 |  | 90 to 100
5 | C[C@@H]1OC(c2c(F)cccc2F)=N[C@@H]1c1ccc(Br)cc1 (mixture of isomers) [Compound 2, (4R,5S)- and (4S,5R)-4-(4-bromophenyl)-2-(2,6-difluorophenyl)-5-methyl-4,5-dihydro-1,3-oxazole] | 90 to 100 | 90 to 100 | < 50 | < 50 | A (90-100) | 
